Consider eight molecules from ChEMBL document CHEMBL4699518, “Cytotoxic Xanthone Derivatives from the Mangrove-Derived Endophytic Fungus Peniophora incarnata Z4” (J Nat Prod, 2020).

Holding throughout (format): functional, cell-based
The test system of one test is A-375. Put plainly: Cytotoxicity against human A-375 cells assessed as reduction in cell viability after 48 hrs by MTT assay. To be noted: A-375, 48 h.
Another test concerns MCF7. Description: Cytotoxicity against human MCF7 cells assessed as reduction in cell viability after 48 hrs by MTT assay. To be noted: MCF7, 48 h.
Another test concerns HL-60. Put plainly: Cytotoxicity against human HL-60 cells assessed as reduction in cell viability after 48 hrs by MTT assay. To be noted: HL-60, 48 h.

Regarding `COC(=O)CCc1oc2cccc(O)c2c(=O)c1[C@H](O)C(=O)OC`, the IC50 with A-375, with MCF7 and with HL-60 was over 10 µM throughout.
As to `COC(=O)c1c(N[C@@H]2Cc3oc4cccc(O)c4c(=O)c3[C@](O)(C(=O)OC)[C@@H]2O)ccc2oc3cccc(O)c3c(=O)c12`, the concentration for half-maximal inhibition (IC50) in the test with A-375, with MCF7 and in the test with HL-60 was over 10 µM each time.
As to `COC(=O)c1c(O)ccc2oc3cc(O)cc(O)c3c(=O)c12`, the IC50 in the test on A-375, in the test on MCF7 and in the test on HL-60 was over 10 µM each time.
In the case of `COC(=O)[C@@]1(O)c2c(oc3cccc(O)c3c2=O)C[C@@H](OC)[C@H]1O`, the IC50 in the test with A-375, with MCF7 and with HL-60 was over 10 µM throughout.
Take `COC(=O)[C@@]1(O)c2c(oc3cccc(O)c3c2=O)[C@@H](O)C[C@@H]1O`: the IC50 in the test on A-375, in the test with MCF7 and in the test on HL-60 was over 10 µM throughout.
For the molecule `COC(=O)[C@@]1(O)c2c(oc3cccc(O)c3c2=O)C[C@@H](S)[C@@H]1O`, the 50% inhibitory concentration (IC50) in the test on A-375 amounted to 8.6 µM; in the test on MCF7, 6.5 µM; in the test with HL-60, 4.9 µM.
The corresponding values for `O=C1N[C@@H]2Cc3oc4cccc(O)c4c(=O)c3[C@@]1(O)[C@@H]2O` are over 10 µM, over 10 µM and over 10 µM.
Consider `COc1cccc2c1C(=O)c1c(O)c3c(c(O)c1C2=O)C[C@@](O)(C(=O)CO)C[C@@H]3O[C@H]1C[C@H](N)[C@H](O)[C@H](C)O1` [DOXORUBICIN], for which the IC50 in the test with A-375 was 2.1 µM; with HL-60 it was 1.2 µM.
